Values quoted from earlier work, collected in patent US20240216299A1, “TRANSMUCOSAL THERAPEUTIC SYSTEM CONTAINING AGOMELATINE” (LTS LOHMANN Therapie-Systeme AG, priority 2019, published 2024).

[1] = patients with moderate hepatic impairment compared to healthy subjects

oral absorption (oral): > 80%
overall bioavailability (oral): less than 5%
increase in AUC [1]: up to 140 fold
increase in Cmax [1]: up to 140 fold
SMILES: COc1ccc2cccc(CCNC(C)=O)c2c1 [agomelatine, N-(2-(7-Methoxy-1-naphthyl)ethyl)acetamide]
